One assay relates to L1210 murine leukemia. The note with it: cited from earlier work.
In assay [1] the target is T1, DHODH (Homo sapiens (Human), UniProt Q02127). The note with it: cited from earlier work.
Target sequence in this assay (Q02127 whole entry, species assumed): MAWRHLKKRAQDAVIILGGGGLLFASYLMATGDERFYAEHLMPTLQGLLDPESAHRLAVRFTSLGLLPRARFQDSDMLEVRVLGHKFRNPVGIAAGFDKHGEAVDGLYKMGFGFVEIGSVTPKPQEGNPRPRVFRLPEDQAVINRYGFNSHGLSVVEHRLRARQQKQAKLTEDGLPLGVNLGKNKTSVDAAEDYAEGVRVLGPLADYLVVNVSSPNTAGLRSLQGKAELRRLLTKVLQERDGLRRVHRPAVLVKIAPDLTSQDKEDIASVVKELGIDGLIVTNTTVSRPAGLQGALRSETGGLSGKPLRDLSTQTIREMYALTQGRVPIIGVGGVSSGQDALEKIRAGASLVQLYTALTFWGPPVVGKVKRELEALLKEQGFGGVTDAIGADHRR
The next assay concerns Ramos cells. Description: Ramos proliferation assay (XTT). The assay is classed as cell-based. The note with it: Homo sapiens, 72 hrs; for inhibition at 30 µM: read-out: Maximum % Inhibition at 30 μM; for IC50: XTT. An excerpt:
Cell proliferation assay is a sensitive method for quantification of viable cells in cytotoxicity or proliferation assay. The XTT (2,3-bis[2-Methoxy-4-nitro-5-sulfophenyl]-2 H-tetrazolium-5-carboxyanilide inner salt) system is a means of measuring the activity of living cells via mitochondrial dehydrogenases. Mitochondrial dehydrogenases of viable cells cleave the tetrazolium ring of XTT, yielding orange formazon crystals which are soluble in aqueous solutions. The XTT solution is potentiated by the addition of an electron coupling agent, phenazine methosulphate (PMS) to the reaction. The resulting orange colour is spectrophotometrically measured at 450 nm. An increase or decrease in cell numbers results in a concomitant change in the amount of formazon formed, indicating the degree of cytotoxicity caused by the test material.
Dissolve 17.7 g IMDM (Iscove's Modified Dulbecco's Medium) powder, 1.5 g sodium bicarbonate pH 7.2-7.4 in 1 L MiliQ water, add 1% Pencilin/ Streptomycin and 10% FBS.
Dissolve 10.6 g Ham's F12 powder, 1.5 g sodium bicarbonate pH 7.2-7.4 in 1 L MiliQ water, add 1% Penicillin/Streptomycin. DMSO used as vehicle.
Ramos cells were re-suspended to a density of 1×10^5 cells/ ml in complete IMDM medium. 95 μL of this cell suspension was added to the 96-well plate to seed ˜10,000 cells per well. The plates were incubated at 37° C. under a humidified atmosphere of 5% CO2 for ˜1 hour before compound addition.
Test compounds (Refer to Table 1) were dissolved in 100% DMSO to generate a 2/6/10/20 mM stock solution. A 200× concentration of the required final concentrations was prepared in DMSO. 10 μL of each concentration (200×) was then diluted in 90 μL of serum-free Ham's F12 medium to get an intermediate concentration of 20× in medium. The DMSO concentration in this step is 10% (Intermediate dilution). 5 μL of each intermediate dilution was then added in triplicates in the previously seeded 96-well plate. The final DMSO concentration was 0.5% in the experimental wells. Cells treated with 0.5% DMSO served as positive control. 100 μL, of complete IMDM medium served as media blank for data analysis. 200 μL, of 1× PBS was added in all corner wells of the assay plate. Plates were then incubated for 72 hrs in an incubator with 5% CO2 at 37° C.
On termination day, 100 μl of XTT solution (1 mg/ml XTT supplemented with 25 μM PMS in Ham's F12 medium) was added to each well. Plates were incubated for 2 hrs. The amount of formazon produced was determined by reading the absorbance of the plate using VICTOR X5 multilabel plate reader at wavelength of 450 nm. The IC50 values were determined as concentrations that reduced cell viability by 50% and the curve was plotted with GraphPad Prism 6.0.
Percent (%) Inhibition was calculated by normalizing DMSO control values to 100% using the formula: % Inhibition=[…](Abs450test compound−blank)/(Abs450positive control−blank)*100
Test compound contains cells, test compound, IMDM medium and 0.5% DMSO
Positive control contains cells, IMDM medium and 0.5% DMSO
Blank contains IMDM medium

In assay [2] the target is T1, DHODH. Put plainly: DHODH activity assay (coupled enzyme assay, DCIP reduction). The assay is classed as biochemical. To be noted: read-out: DHODH inhibition activity, IC50 group. The method, then:
The DHODH activity assay is a coupled enzyme assay in which oxidation of DHO and subsequent reduction of ubiquinone are stoichiometrically equivalent to the reduction of DCIP ([…]). The reduction of DCIP is accompanied by a loss of absorbance at 610 nm.
Buffer Preparation: 50 mM tris HCl, 150 mM KCl, and pH 8.0, 0.8% triton.
L-Dihydroorotic acid stock solution of 20 mM in buffer.
2, 6-Dichloroindophenol Sodium salt hydrate stock solution of 20 mM in buffer.
Decylubiquinone stock solution of 20 mM in buffer.
5 μL of Dimethyl sulfoxide or a compound of formula (I) in DMSO solution was added to the wells of a 96 well plate. Compounds of formula (I) were measured at 10 μM.
Protein along with buffer was added, so that the total volume including the DMSO was 87 μL. Compound and protein were incubated for half an hour at room temperature after mixing. 5 μL of 20 mM solution of L-Dihydroorotic acid, 5 μL of 2 mM solution of Decylubiquinone and 3 μL of 2 mM solution of 2, 6-Dichloroindophenol sodium salt hydrate were added to the above solution (total assay volume 100 μL). The mixture was stirred for 2 min and absorbance was recorded at every 10 min at 610 nanometers.
Percent inhibition is calculated as follows: […]
A 2 mM DMSO stock solution of the selected trisubstituted benzoimidazole and benzotriazole derivatives of formula (I) of the present invention to be examined was prepared. Subsequent ⅓rd dilutions were made.
5 μL of each stock of compound of formula (I) was used for each 100 μL assay. Therefore, 5 μL of the 2 mM stock provided 100 μL of 100 μM solution of compound of formula (I), when made up with buffer, protein and substrate. See also: Ulrich et al. (2001) Eur. J. Biochem.268, 1861-1868.
Target sequence in this assay (Q02127 whole entry): as the sequence (Q02127 whole entry, species assumed) above

As for `Cc1c(-c2ccc(-c3ccccc3F)cc2)nc2ccc(F)cc2c1C(=O)O` [Brequinar, 6-Fluoro-2-(2′-fluoro[1,1′-biphenyl]-4-yl)-3-methyl-4-quinolinecarboxylic acid], the Anticancer activity result in the assay with L1210 murine leukemia was “exhibits an anticancer activity”.

With `C/C(O)=C(\C#N)C(=O)Nc1ccc(C(F)(F)F)cc1` [Teriflunomide], the “Fold greater inhibitor of DHODH than of protein tyrosine kinase” value at DHODH [1] is on record as 100-1,000 fold.

In the case of `Cc1ccc(C)n1-c1ccc(-c2cc(C(=O)O)c3nn(C)nc3c2)cc1` [Compound 13, 6-(4-(2,5-dimethyl-1H-pyrrol-1-yl)phenyl)-2-methyl-2H-benzo[d][1,2,3]triazole-4-carboxylic acid], in the assay with Ramos cells, the inhibition at 30 µM worked out at 100%. Further, the half-inhibitory concentration (IC50) in the assay on Ramos cells was 3.88 µM; on DHODH [2] it was 0.101 to 1 µM.

In the case of `Cn1nc2cc(-c3c(F)c(F)c(-c4cccc(CN5CCOCC5)c4)c(F)c3F)cc(C(=O)O)c2n1` [Compound 39, 2-methyl-6-(2,3,5,6-tetrafluoro-3′-(morpholinomethyl)-[1,1′-biphenyl]-4-yl)-2H-benzo[d][1,2,3]triazole-4-carboxylic acid], the inhibition at 30 µM in the assay on Ramos cells amounted to 96%. The values for the IC50 in the assay with Ramos cells and on DHODH [2] were 1.87 µM and 0.101 to 1 µM, respectively.

Take `Cc1ccccc1-c1ccc(-c2cc(C(N)=O)c3c(c2)nnn3C)cc1` [Compound 2, 1-methyl-5-(2′-methyl-[1,1′-biphenyl]-4-yl)-1H-benzo[d] [1,2,3]triazole-7-carboxamide]: in the assay on Ramos cells, the inhibition at 30 µM came out at 95% and the IC50 was found to be 1.09 µM. In addition, on DHODH [2], the IC50 is less than 0.1 µM.

Take `Cn1nc2cc(-c3ccc(-c4cccc(CN5CCOCC5)c4)cc3)cc(C(=O)O)c2n1` [Compound 16, 2-methyl-6-(3′-(morpholinomethyl)-[1,1′-biphenyl]-4-yl)-2H-benzo[d][1,2,3]triazole-4-carboxylic acid]: the inhibition at 30 µM in the assay with Ramos cells was 124%. For the same compound, the 50% inhibitory concentration (IC50) in the assay on Ramos cells is 6.14 µM; at DHODH [2] it was greater than 1 µM.

Regarding `Cn1nc2cc(-c3c(F)c(F)c(-c4cccc(CN5CCCCC5)c4)c(F)c3F)cc(C(=O)O)c2n1` [Compound 38, 2-methyl-6-(2,3,5,6-tetrafluoro-3′-(piperidin-1-ylmethyl)-[1,1′-biphenyl]-4-yl)-2H-benzo[d][1,2,3]triazole-4-carboxylic acid], the inhibition at 30 µM with Ramos cells was found to be 92%. In addition, the results for the half-maximal inhibitory concentration (IC50) in the assay with Ramos cells and at DHODH [2] were 1.6 µM and 0.101 to 1 µM, respectively.

As to `Cc1ccc(C)n1-c1ccc(-c2cc(C(=O)O)c3c(c2)nnn3C)cc1` [Compound 12, 5-(4-(2,5-dimethyl-1H-pyrrol-1-yl)phenyl)-1-methyl-1H-benzo[d][1,2,3]triazole-7-carboxylic acid], in the assay with Ramos cells, the inhibition at 30 µM was determined as 103% and the IC50 was 0.362 µM. Also, the 50% inhibitory concentration (IC50) on DHODH [2] is less than 0.1 µM.

Turning to `Cn1nc2cc(-c3ccc(-c4ccccc4)cc3)cc(C(=O)O)c2n1` [Compound 4, 6-([1,1′-biphenyl]-4-yl)-2-methyl-2H-benzo[d][1,2,3]triazole-4-carboxylic acid], in the assay on Ramos cells, the inhibition at 30 µM was 107% and the 50% inhibitory concentration (IC50) amounted to 1.45 µM. Besides, at DHODH [2], the half-inhibitory concentration (IC50) lay in the range of 0.101 to 1 µM.

In the case of `Cn1nnc2c(C(=O)O)cc(-c3ccc(-c4cccc(CN5CCCCC5)c4)cc3)cc21` [Compound 20, 1-methyl-6-(3′-(piperidin-1-ylmethyl)-[1,1′-biphenyl]-4-yl)-1H-benzo[d][1,2,3]triazole-4-carboxylic acid], in the assay on Ramos cells, the inhibition at 30 µM came out at 129% and the IC50 came out at 3.72 µM. Further, the concentration for half-maximal inhibition (IC50) at DHODH [2] is greater than 1 µM.

As to `Cn1nnc2cc(-c3ccc(-c4ccc(CN5CCOCC5)cc4)cc3)cc(C(=O)O)c21` [Compound 31, 1-methyl-5-(4′-(morpholinomethyl)-[1,1′-biphenyl]-4-yl)-1H-benzo[d][1,2,3]triazole-7-carboxylic acid], the inhibition at 10 µM in the assay with Ramos cells (10 μM, read-out: Maximum % Inhibition (at 10 μM)) came out at 81%. For the same compound, the results for the IC50 in the assay with Ramos cells and on DHODH [2] were 1.35 µM and greater than 1 µM, respectively.

With `Cn1nnc2cc(-c3ccc(-c4cccc(CN5CCCC5)c4)cc3)cc(C(=O)O)c21` [Compound 17, 1-methyl-5-(3′-(pyrrolidin-1-ylmethyl)-[1,1′-biphenyl]-4-yl)-1H-benzo[d][1,2,3]triazole-7-carboxylic acid], the inhibition at 30 µM in the assay on Ramos cells amounted to 50%. Moreover, the concentration for half-maximal inhibition (IC50) at DHODH [2] is greater than 1 µM.

As usually defined, the inhibition is the change of the read-out against control, counted positive when it falls. By IC50 is commonly meant the point on the concentration scale where inhibition reaches its midpoint.

(Values after US11147801B2, “Methods of use for trisubstituted benzotriazole derivatives as dihydroorotate oxygenase inhibitors” (Aurigene Discovery Technologies Limited, priority 2017, dated 2021).)
